According to patent US8952024B2, “Herbicidal pyrimidone derivatives” (E I du Pont de Nemours and Company, priority 2009, dated 2015):

Experiments:
[1] = test system: spring barley (Hordeum vulgare); assay: Test C plant response; format: in vivo; settings: Preemergence, scale 0 to 100
[2] = test system: buckwheat (wild buckwheat, Polygonum convolvulus); assay: Test C plant response; format: in vivo; settings: Preemergence, scale 0 to 100
[3] = test system: blackgrass (Alopecurus myosuroides); assay: Test C plant response; format: in vivo; settings: Preemergence, scale 0 to 100
[4] = test system: wild mustard (Sinapis arvensis); assay: Test C plant response; format: in vivo; settings: Preemergence, scale 0 to 100
[5] = test system: chickweed (common chickweed, Stellaria media); assay: Test C plant response; format: in vivo; settings: Preemergence, 125 g ai/ha; scale 0 to 100
[6] = test system: winter barley (Hordeum vulgare); assay: Test C plant response; format: in vivo; settings: Preemergence, scale 0 to 100
[7] = test system: wild radish (Raphanus raphanistrum); assay: Test C plant response; format: in vivo; settings: Preemergence, scale 0 to 100
[8] = test system: windgrass (Apera spica-venti); assay: Test C plant response; format: in vivo; settings: Preemergence, scale 0 to 100
[9] = test system: oilseed rape (Brassica napus); assay: Test C plant response; format: in vivo; settings: Preemergence, scale 0 to 100
[10] = test system: winter wheat (Triticum aestivum); assay: Test C plant response; format: in vivo; settings: Preemergence, scale 0 to 100
[11] = test system: deadnettle (henbit deadnettle, Lamium amplexicaule); assay: Test C plant response; format: in vivo; settings: Preemergence, scale 0 to 100
[12] = test system: pigweed (Amaranthus retroflexus); assay: Test C plant response; format: in vivo; settings: Preemergence, scale 0 to 100
[13] = test system: kochia (Kochia scoparia); assay: Test C plant response; format: in vivo; settings: Preemergence, scale 0 to 100
[14] = test system: canarygrass (Phalaris minor); assay: Test C plant response; format: in vivo; settings: Preemergence, 125 g ai/ha; scale 0 to 100
[15] = test system: field violet (Viola arvensis); assay: Test C plant response; format: in vivo; settings: Preemergence, scale 0 to 100
[16] = test system: Italian ryegrass (Lolium multiflorum); assay: Test C plant response; format: in vivo; settings: Preemergence, scale 0 to 100
[17] = test system: spring wheat (Triticum aestivum); assay: Test C plant response; format: in vivo; settings: Preemergence, scale 0 to 100
[18] = test system: Russian thistle (Salsola iberica); assay: Test C plant response; format: in vivo; settings: Preemergence, scale 0 to 100
[19] = test system: galium (catchweed bedstraw, Galium aparine); assay: Test C plant response; format: in vivo; settings: Preemergence, scale 0 to 100
[20] = test system: wild oat (Avena fatua); assay: Test C plant response; format: in vivo; settings: Preemergence, scale 0 to 100
[21] = test system: green foxtail (Setaria viridis); assay: Test C plant response; format: in vivo; settings: Preemergence, scale 0 to 100
[22] = test system: sprangletop (bearded (i.e. Brdd.) sprangletop, Leptochloa fascicularis); assay: Test E flooded paddy rice and weeds; format: in vivo; settings: applied to paddy water, 21 days, scale 0 to 100
Description: Three plastic pots (ca. 16-cm diameter) for each application were partially filled with sterilized Tama silt loam soil comprising a 35:50:15 ratio of sand, silt and clay and 2.6% organic matter. Separate plantings for each of the three pots were as follows. Seeds from the U.S. of ducksalad (Heteranthera limosa), sedge (smallflower umbrella sedge, Cyperus difformis), ricefield bulrush (Scirpus mucronatus) and redstem (purple redstem, Ammannia coccinea), were planted into one 16-cm pot for each rate. Seeds from the U.S. of flatsedge (rice flatsedge, Cyperus iria), sprangletop (bearded (i.e. Brdd.) sprangletop, Leptochloa fascicularis), one stand of 9 or 10 water seeded rice seedlings (Oryza sativa cv. ‘Japonica—M202’), and two stands of 3 or 4 transplanted rice seedlings (Oryza sativa cv. ‘Japonica—M202’) were planted into one 16-cm pot for each rate. Seeds from the U.S. of barnyardgrass (Echinochloa crus-galli), late watergrass (Echinochloa oryzicola), early watergrass (Echinochloa oryzoides) and junglerice (Echinochloa colona) were planted into one 16-cm pot for each rate. Plantings were sequential so that crop and weed species were at the 2.0 to 2.5-leaf stage at time of treatment.
Potted plants were grown in a greenhouse with day/night temperature settings of 30/27° C., and supplemental balanced lighting was provided to maintain a 16-hour photoperiod. Test pots were maintained in the greenhouse until test completion.
At time of treatment, test pots were flooded to 3 cm above the soil surface, treated by application of test compounds directly to the paddy water, and then maintained at that water depth for the duration of the test. Effects of treatments on rice and weeds were visually evaluated by comparison to untreated controls after 21 days. Plant response ratings, summarized in Table E, are based on a scale of 0 to 100 where 0 is no effect and 100 is complete control. A dash (-) response means no test result.

Cc1ccccc1-n1c(-c2ccccc2)ncc(C(=O)C2=C(O)CCCC2=O)c1=O [Compound 12]
90: Plant response rating: Deadnettle ([11]; 62 g ai/ha)
0: Plant response rating: Barley, Spring ([1]; 62 g ai/ha) | Plant response rating: Barley, Spring ([1]; 125 g ai/ha) | Plant response rating: Barley, Spring ([1]; 16 g ai/ha) | Plant response rating: Barley, Spring ([1]; 31 g ai/ha) | Plant response rating: Buckwheat, Wild ([2]; 62 g ai/ha) | Plant response rating: Buckwheat, Wild ([2]; 16 g ai/ha) | Plant response rating: Buckwheat, Wild ([2]; 31 g ai/ha) | Plant response rating: Blackgrass ([3]; 62 g ai/ha) | Plant response rating: Blackgrass ([3]; 125 g ai/ha) | Plant response rating: Blackgrass ([3]; 16 g ai/ha) | Plant response rating: Blackgrass ([3]; 31 g ai/ha) | Plant response rating: Mustard, Wild ([4]; 16 g ai/ha) | Plant response rating: Barley, Winter ([6]; 62 g ai/ha) | Plant response rating: Barley, Winter ([6]; 125 g ai/ha) | Plant response rating: Barley, Winter ([6]; 16 g ai/ha) | Plant response rating: Barley, Winter ([6]; 31 g ai/ha) | Plant response rating: Radish, Wild ([7]; 62 g ai/ha) | Plant response rating: Radish, Wild ([7]; 125 g ai/ha) | Plant response rating: Radish, Wild ([7]; 16 g ai/ha) | Plant response rating: Radish, Wild ([7]; 31 g ai/ha) | Plant response rating: Oilseed Rape ([9]; 16 g ai/ha) | Plant response rating: Wheat, Winter ([10]; 62 g ai/ha) | Plant response rating: Wheat, Winter ([10]; 125 g ai/ha) | Plant response rating: Wheat, Winter ([10]; 16 g ai/ha) | Plant response rating: Wheat, Winter ([10]; 31 g ai/ha) | Plant response rating: Pigweed ([12]; 16 g ai/ha) | Plant response rating: Pigweed ([12]; 31 g ai/ha) | Plant response rating: Field Violet ([15]; 62 g ai/ha) | Plant response rating: Field Violet ([15]; 125 g ai/ha) | Plant response rating: Field Violet ([15]; 16 g ai/ha) | Plant response rating: Field Violet ([15]; 31 g ai/ha) | Plant response rating: Ryegrass, Italian ([16]; 62 g ai/ha) | Plant response rating: Ryegrass, Italian ([16]; 125 g ai/ha) | Plant response rating: Ryegrass, Italian ([16]; 16 g ai/ha) | Plant response rating: Ryegrass, Italian ([16]; 31 g ai/ha) | Plant response rating: Wheat, Spring ([17]; 62 g ai/ha) | Plant response rating: Wheat, Spring ([17]; 125 g ai/ha) | Plant response rating: Wheat, Spring ([17]; 16 g ai/ha) | Plant response rating: Wheat, Spring ([17]; 31 g ai/ha) | Plant response rating: Russian Thistle ([18]; 62 g ai/ha) | Plant response rating: Russian Thistle ([18]; 16 g ai/ha) | Plant response rating: Russian Thistle ([18]; 31 g ai/ha) | Plant response rating: Galium ([19]; 16 g ai/ha) | Plant response rating: Galium ([19]; 31 g ai/ha) | Plant response rating: Oat, Wild ([20]; 62 g ai/ha) | Plant response rating: Oat, Wild ([20]; 125 g ai/ha) | Plant response rating: Oat, Wild ([20]; 16 g ai/ha) | Plant response rating: Oat, Wild ([20]; 31 g ai/ha) | Plant response rating: Foxtail, Green ([21]; 62 g ai/ha) | Plant response rating: Foxtail, Green ([21]; 125 g ai/ha) | Plant response rating: Foxtail, Green ([21]; 16 g ai/ha) | Plant response rating: Foxtail, Green ([21]; 31 g ai/ha)
100: Plant response rating: Deadnettle ([11]; 125 g ai/ha)
20: Plant response rating: Windgrass ([8]; 16 g ai/ha) | Plant response rating: Windgrass ([8]; 31 g ai/ha) | Plant response rating: Oilseed Rape ([9]; 31 g ai/ha) | Plant response rating: Canarygrass [14]
5: Plant response rating: Mustard, Wild ([4]; 62 g ai/ha) | Plant response rating: Kochia ([13]; 62 g ai/ha) | Plant response rating: Kochia ([13]; 16 g ai/ha) | Plant response rating: Kochia ([13]; 31 g ai/ha)
40: Plant response rating: Buckwheat, Wild ([2]; 125 g ai/ha) | Plant response rating: Windgrass ([8]; 62 g ai/ha) | Plant response rating: Windgrass ([8]; 125 g ai/ha) | Plant response rating: Oilseed Rape ([9]; 125 g ai/ha)
35: Plant response rating: Deadnettle ([11]; 16 g ai/ha) | Plant response rating: Galium ([19]; 62 g ai/ha) | Plant response rating: Galium ([19]; 125 g ai/ha)
30: Plant response rating: Oilseed Rape ([9]; 62 g ai/ha)
50: Plant response rating: Chickweed [5] | Plant response rating: Deadnettle ([11]; 31 g ai/ha) | Plant response rating: Pigweed ([12]; 62 g ai/ha)
65: Plant response rating: Pigweed ([12]; 125 g ai/ha)
25: Plant response rating: Kochia ([13]; 125 g ai/ha)

O=C1CCCC(O)=C1C(=O)c1cnc(-c2ccccc2)n(Cc2ccccc2)c1=O [Compound 17, 5-[(2-hydroxy-6-oxo-1-cyclohexen-1-yl)carbonyl]-2-phenyl-3-(phenylmethyl)-4(3H)-pyrimidinone]
57 to 58 °C: melting point

COc1ccc(-n2c(-c3ccccc3)ncc(C(=O)C3=C(O)CCCC3=O)c2=O)cc1OC [Compound 218]
65: Plant response rating, Sprangletop, Brdd., Flood ([22]; 32 g ai/ha)
95: Plant response rating, Sprangletop, Brdd., Flood ([22]; 250 g ai/ha)
70: Plant response rating, Sprangletop, Brdd., Flood ([22]; 64 g ai/ha) | Plant response rating, Sprangletop, Brdd., Flood ([22]; 125 g ai/ha)
